Source: ChEMBL document CHEMBL1208698, “Synthesis of novel alpha-pyranochalcones and pyrazoline derivatives as Plasmodium falciparum growth inhibitors” (Bioorg Med Chem Lett, 2010)
Converted amounts (≈) assume the structure as drawn.

Columns and labels:
[1] = tested on: Plasmodium falciparum; assay: Antimalarial activity against chloroquine-sensitive Plasmodium falciparum 3D7 infected in human erythrocyte after 48 h by SYBR-Green-1 assay; type: functional, organism-based; conditions: 3D7, 48 h
[2] = tested on: Plasmodium falciparum; assay: Antimalarial activity against chloroquine-resistant Plasmodium falciparum RKL9 infected in human erythrocyte after 48 h by SYBR-Green-1 assay; type: functional, organism-based; conditions: RKL9, 48 h
[3] = tested on: Plasmodium falciparum; assay: Resistance index, ratio of IC50 for Plasmodium falciparum 3D7 to IC50 for Plasmodium falciparum RKL9; type: functional
[4] = Cytotoxicity against human HeLa cells after 24 to 48 hrs by MTT assay; type: cell-based; conditions: read-out: TC50 (the source's name)
[5] = Therapeutic index, ratio of TC50 for human HeLa cells to IC50 for Plasmodium falciparum RKL9; type: cell-based; conditions: read-out: TI

Compound | IC50 [1] [µg/mL] | IC80 [1] [µg/mL] | IC50 [2] [µg/mL] | Ratio IC50 [3] | CC50 [4] [µg/mL] | selectivity ratio [5]
COc1ccc(/C=C/C(=O)c2cc3ccccc3oc2=O)c(OC)c1OC | 3.1 (≈ 8.46 µM) | 6.2 (≈ 16.9 µM) | 1.1 (≈ 3 µM) | 2.8 | 100 (≈ 273 µM) | 90.9
Cc1cc(=O)oc2ccc(C(=O)/C=C/c3ccccc3Cl)c(O)c12 | 20 (≈ 58.7 µM) | 25 (≈ 73.4 µM) | 13.5 (≈ 39.6 µM) | 1.5 | – | –
COc1cc(OC)c(OC)cc1/C=C/C(=O)c1cc2ccccc2oc1=O | > 100 | – | – | – | – | –
COc1ccc(/C=C/C(=O)c2cc3ccccc3oc2=O)cc1OC | 26.7 (≈ 79.4 µM) | 100 (≈ 297 µM) | – | – | – | –
C[C@@H]1CC[C@H]2[C@@H](C)C(=O)O[C@@H]3O[C@@]4(C)CC[C@@H]1[C@]32OO4 [ARTEMISININ] | – | 0.00846 (≈ 0.03 µM) | 0.00451 (≈ 0.016 µM) | – | – | –
COc1ccc(C2CC(c3cc4ccccc4oc3=O)=NN2C(C)=O)cc1OC (stereo not given) | 10 (≈ 25.5 µM) | 14 (≈ 35.7 µM) | 9 (≈ 22.9 µM) | 1.1 | > 100 | > 10
COc1ccccc1/C=C/C(=O)c1cc2ccccc2oc1=O | > 100 | – | – | – | – | –
COc1ccc(C2CC(c3cc4ccccc4oc3=O)=NN2c2ccccc2)cc1OC (stereo not given) | 10 (≈ 23.4 µM) | 44 (≈ 103 µM) | 7.6 (≈ 17.8 µM) | 1.3 | > 100 | > 13
CC(=O)N1N=C(c2ccc(O)cc2)CC1c1ccc(F)cc1 (stereo not given) | > 100 | – | – | – | – | –
COc1cccc(/C=C/C(=O)c2cc3ccccc3oc2=O)c1 | 11 (≈ 35.9 µM) | 24 (≈ 78.4 µM) | 4.9 (≈ 16 µM) | 2.2 | > 100 | > 20
COc1cc(/C=C/C(=O)c2cc3ccccc3oc2=O)cc(OC)c1OC | 3.1 (≈ 8.46 µM) | 6 (≈ 16.4 µM) | 1.9 (≈ 5.19 µM) | 1.6 | > 100 | > 50
COc1ccc(OC)c(/C=C/C(=O)c2ccc3oc(=O)cc(C)c3c2O)c1 | > 100 | – | – | – | – | –
COc1ccc(OC)c(/C=C/C(=O)c2cc3ccccc3oc2=O)c1 | 2.7 (≈ 8.03 µM) | 11.3 (≈ 33.6 µM) | – | – | – | –
COc1ccc(/C=C/C(=O)c2cc3ccccc3oc2=O)cc1 | > 100 | – | – | – | – | –
